According to ChEMBL document CHEMBL1157030 (Eur J Med Chem, 2010):

Columns and labels:
Acetylcholinesterase = Acetylcholinesterase (Electrophorus electricus, UniProt O42275)
Description: inhibition of electric eel AChE by Ellman's method

Cholinesterase = Cholinesterase (Equus caballus, UniProt P81908)
Cholinesterase, sequence (P81908 whole entry): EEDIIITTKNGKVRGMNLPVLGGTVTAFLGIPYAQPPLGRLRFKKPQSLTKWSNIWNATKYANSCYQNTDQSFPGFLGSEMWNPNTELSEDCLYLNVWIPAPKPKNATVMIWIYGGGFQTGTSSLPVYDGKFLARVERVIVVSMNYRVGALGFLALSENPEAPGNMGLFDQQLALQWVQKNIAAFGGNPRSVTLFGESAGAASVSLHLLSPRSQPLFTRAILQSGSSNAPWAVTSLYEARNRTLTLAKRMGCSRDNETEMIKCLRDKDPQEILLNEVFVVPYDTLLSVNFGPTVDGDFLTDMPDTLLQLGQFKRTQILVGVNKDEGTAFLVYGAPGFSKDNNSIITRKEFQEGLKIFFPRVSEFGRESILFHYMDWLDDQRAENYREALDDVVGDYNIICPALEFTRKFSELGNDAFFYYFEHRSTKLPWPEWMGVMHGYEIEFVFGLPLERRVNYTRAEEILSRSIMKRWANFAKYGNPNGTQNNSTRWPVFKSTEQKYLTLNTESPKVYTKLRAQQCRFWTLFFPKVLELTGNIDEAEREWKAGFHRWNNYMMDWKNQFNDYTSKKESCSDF
Description: inhibition of equine serum BuChE by Ellman's method

Acetylcholinesterase, sequence (O42275 whole entry): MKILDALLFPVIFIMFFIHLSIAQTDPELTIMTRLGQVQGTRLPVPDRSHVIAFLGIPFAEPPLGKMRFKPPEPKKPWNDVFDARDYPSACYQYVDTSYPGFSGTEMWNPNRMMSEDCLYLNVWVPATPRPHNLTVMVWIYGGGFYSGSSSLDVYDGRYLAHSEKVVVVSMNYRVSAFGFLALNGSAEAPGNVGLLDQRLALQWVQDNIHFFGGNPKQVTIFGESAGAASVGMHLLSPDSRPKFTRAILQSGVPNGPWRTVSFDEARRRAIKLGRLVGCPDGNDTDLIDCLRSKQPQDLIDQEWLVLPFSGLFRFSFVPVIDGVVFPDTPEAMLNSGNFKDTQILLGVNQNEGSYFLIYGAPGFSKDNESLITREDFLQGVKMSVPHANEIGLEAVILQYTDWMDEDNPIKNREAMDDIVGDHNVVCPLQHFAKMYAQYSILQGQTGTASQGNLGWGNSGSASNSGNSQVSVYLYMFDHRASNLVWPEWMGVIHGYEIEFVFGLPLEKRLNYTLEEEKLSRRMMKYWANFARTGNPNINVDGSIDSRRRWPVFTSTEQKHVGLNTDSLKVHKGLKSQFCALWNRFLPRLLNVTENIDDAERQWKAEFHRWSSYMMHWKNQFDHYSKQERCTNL

Row | Structure (SMILES) | IC50 (Acetylcholinesterase) [nM] | IC50 (Cholinesterase) [µM]
1 | O=C(CCN1CCCC1)Nc1ccc2nc3n(c(=O)c2c1)CCc1c-3[nH]c2ccccc12 | 29.2 | 0.845
2 | O=C(CN1CCCC1)Nc1ccc2ncn(CCc3c[nH]c4ccccc34)c(=O)c2c1 | 4040 | 25.9
3 | O=C(CN1CCCCC1)Nc1ccc2ncn(CCc3c[nH]c4ccccc34)c(=O)c2c1 | 1520 | 13
4 | CCN(CC)CC(=O)Nc1ccc2nc3n(c(=O)c2c1)CCc1c-3[nH]c2ccccc12 | 372 | 17.6
5 | O=C(CCN1CCCCC1)Nc1ccc2nc3n(c(=O)c2c1)CCc1c-3[nH]c2ccccc12 | 21.4 | 2.11
6 | CCN(CC)CC(=O)Nc1ccc2nc3c4[nH]c5ccccc5c4ccn3c(=O)c2c1 | 57.1 | 11.4
7 | O=C(CN1CCCC1)Nc1ccc2nc3c4[nH]c5ccccc5c4ccn3c(=O)c2c1 | 23.6 | 0.428
8 | O=C(CN1CCCC1)Nc1ccc2nc3n(c(=O)c2c1)CCc1c-3[nH]c2ccccc12 | 131 | 0.696
9 | O=C(CN1CCCCC1)Nc1ccc2nc3n(c(=O)c2c1)CCc1c-3[nH]c2ccccc12 | 111 | 33
10 | CCN(CC)CCC(=O)Nc1ccc2nc3n(c(=O)c2c1)CCc1c-3[nH]c2ccccc12 | 80.2 | 2.85
11 | O=C(CN1CCCCC1)Nc1ccc2nc3c4[nH]c5ccccc5c4ccn3c(=O)c2c1 | 10.1 | 5.43
12 | CCN(CC)CC(=O)Nc1ccc2ncn(CCc3c[nH]c4ccccc34)c(=O)c2c1 | 7680 | 41.6
